# From patent US20100063047A1 (KALYPSYS, INC., priority 2008, published 2010)
# Columns and labels:
# human H4 = target: T1, human H4 (Homo sapiens, UniProt Q9H3N8); experiment: In vitro histamine H4 receptor cell-based aequorin bioluminescence antagonist assay; conditions: CHO-K1 cells expressing human H4, aequorin and Gα16; histamine at EC80
# T1 construct: host or cells: CHO-K1, also expressing mitochondrion-targeted aequorin and human Gα16
# Procedure: In vitro Histamine Receptor Cell-Based Assays
# The cell-based assays utilize an aequorin dependent bioluminescence signal. Doubly-transfected, stable CHO—K1 cell lines expressing human H1 or H4, mitochondrion-targeted aequorin, and (H4 only) human G protein Gα16 are obtained from Perkin-Elmer. Cells are maintained in F12 (Ham's) growth medium, containing 10% (vol./vol.) fetal bovine serum, penicillin (100 IU/mL), streptomycin (0.1 mg/mL), zeocin (0.25 mg/mL) and geneticin (0.40 mg/mL). Cell media components are from Invitrogen, Inc. One day prior to assay, the growth medium is replaced with the same, excluding zeocin and geneticin.
# For assay preparation, growth medium is aspirated, and cells are rinsed with calcium-free, magnesium-free phosphate-buffered saline, followed by two to three minute incubation in Versene (Invitrogen, Inc.) at 37° C. Assay medium (DMEM:F12 [50:50], phenol-red free, containing 1 mg/mL protease-free bovine serum albumin) is added to collect the released cells, which are then centrifuged. The cell pellet is re-suspended in assay medium, centrifuged once more, and re-suspended in assay medium to a final density of 5×10^6 cells/mL. Coelenterazine-h dye (500 μM in ethanol) is added to a final concentration of 5 μM, and mixed immediately. The conical tube containing the cells is then wrapped with foil to protect the light-sensitive dye. The cells are incubated for four hours further at room temperature (approximately 21° C.) with end-over-end rotation to keep them in suspension.
# Just before assay, the dye-loaded cells are diluted to 0.75×10^6 cells/mL (H1 receptor) or 1.5×10^6 cells/mL (H4 receptor) with additional assay medium. Cells are dispensed to 1536 well micro-titer plates at 3 μL/well. To assay receptor antagonism, 60 nl of 100× concentration test compounds in 100% dimethyl sulfoxide (DMSO) are dispensed to the wells, one compound per well, by passive pin transfer, and the plates are incubated for 15 minutes at room temperature. […] The pipette dispenses 3 μL/well of agonist (histamine, at twice the final concentration, where final concentration is a previously determined EC80) in assay medium, with concurrent bioluminescence detection. Agonist activity of test compounds is excluded by separate assays that measure response to test compounds immediately, without added histamine agonist.
# CCD image capture on the Lumilux includes a 5 second baseline read prior to agonist addition, and generally a 40 second read per plate after agonist addition. A decrease in bioluminescence signal (measured either as area-under-the-curve, or maximum signal amplitude minus minimum signal amplitude) correlates with receptor antagonism in a dose dependent manner. The negative control is DMSO lacking any test compound. For antagonist assays, the positive controls are diphenhydramine (2-Diphenylmethoxy-N,N-dimethylethylamine, 10 μM final concentration, H1 receptor) or JNJ7777120 (1-[(5-Chloro-1H-indol-2-yl)carbonyl]-4-methyl-piperazine, 10 μM final concentration, H4 receptor). Efficacy is measured as a percentage of positive control activity.
# human H1 = target: T2, human H1 (Homo sapiens, UniProt P35367); experiment: In vitro histamine H1 receptor cell-based aequorin bioluminescence antagonist assay; conditions: CHO-K1 cells expressing human H1 and aequorin; histamine at EC80; read-out: H1 Antagonist EC50
# T2 construct: host or cells: CHO-K1, also expressing mitochondrion-targeted aequorin
# T2 sequence (P35367 whole entry): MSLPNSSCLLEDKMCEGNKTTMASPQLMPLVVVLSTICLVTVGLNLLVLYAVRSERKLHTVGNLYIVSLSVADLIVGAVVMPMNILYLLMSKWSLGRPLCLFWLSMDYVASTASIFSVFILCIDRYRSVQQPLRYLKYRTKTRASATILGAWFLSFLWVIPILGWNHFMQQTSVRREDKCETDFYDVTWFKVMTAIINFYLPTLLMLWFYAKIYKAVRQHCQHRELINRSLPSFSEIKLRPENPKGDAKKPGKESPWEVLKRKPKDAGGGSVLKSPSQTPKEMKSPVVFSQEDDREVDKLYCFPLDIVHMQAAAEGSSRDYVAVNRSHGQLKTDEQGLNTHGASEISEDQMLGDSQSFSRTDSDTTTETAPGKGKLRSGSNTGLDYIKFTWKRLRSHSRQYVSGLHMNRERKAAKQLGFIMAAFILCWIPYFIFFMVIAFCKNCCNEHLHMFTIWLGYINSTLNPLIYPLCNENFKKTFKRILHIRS
# Outline: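 CHO-K1 cells stably expressing human H1 or H4 plus mitochondrial aequorin (H4 also with Gα16), loaded with 5 μM coelenterazine-h for 4 h at ~21 °C. Compounds preincubated 15 min at room temperature, then histamine at EC80 added.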
SMILES,EC50 (human H4) [µM],EC50 (human H1) [µM]
"Cc1csc2ncnc(N3CC(C)CC(C)C3)c12 (centres unmarked) [Example 199, 3,5-dimethyl-1-{5-methylthieno[2,3-d]pyrimidin-4-yl}piperidine]",> 10,> 10
"Cc1ccc(C)c(N2CCN(c3ncnc4scc(C)c34)CC2)c1 [Example 259, 1-(2,5-dimethylphenyl)-4-{5-methylthieno[2,3-d]pyrimidin-4-yl}piperazine]",> 10,–
"Cc1ccc(Cl)cc1N1CCN(c2ncnc3scc(C)c23)CC1 [Example 275, 1-(5-chloro-2-methylphenyl)-4-{5-methylthieno[2,3-d]pyrimidin-4-yl}piperazine]",> 10,> 10
"Cc1csc2ncnc(NC3CC3)c12 [Example 53, N-cyclopropyl-5-methylthieno[2,3-d]pyrimidin-4-amine]",> 10,> 10
"Cc1csc2ncnc(N(C)C[C@H](O)c3ccc(O)c(O)c3)c12 [Example 248, 4-[(1R)-1-hydroxy-2-[methyl({5-methylthieno[2,3-d]pyrimidin-4-yl})amino]ethyl]benzene-1,2-diol]",> 10,> 10
"CCOC(=O)CC1C(=O)NCCN1c1ncnc2scc(C)c12 (centres unmarked) [Example 249, ethyl 2-(1-{5-methylthieno[2,3-d]pyrimidin-4-yl}-3-oxopiperazin-2-yl)acetate]",> 10,> 10
"Cc1csc2ncnc(N3CCC(N(C)C)C3)c12 (centres unmarked) [Example 202, N,N-dimethyl-1-{5-methylthieno[2,3-d]pyrimidin-4-yl}pyrrolidin-3-amine]",> 10,–
"Cc1csc2ncnc(N3CCC(C(N)=O)CC3)c12 [Example 211, 1-{5-methylthieno[2,3-d]pyrimidin-4-yl}piperidine-4-carboxamide]",> 10,> 10
"Cc1csc2ncnc(NC3CCCc4ccccc43)c12 (centres unmarked) [Example 138, 5-methyl-N-(1,2,3,4-tetrahydronaphthalen-1-yl)thieno[2,3-d]pyrimidin-4-amine]",> 10,> 10
"Cc1csc2ncnc(NCCN3CCOCC3)c12 [Example 109, 5-methyl-N-[2-(morpholin-4-yl)ethyl]thieno[2,3-d]pyrimidin-4-amine]",> 10,> 10
"Cc1csc2ncnc(N3CCCC(CO)C3)c12 (centres unmarked) [Example 204, (1-{5-methylthieno[2,3-d]pyrimidin-4-yl}piperidin-3-yl)methanol]",> 10,> 10
"Cc1csc2ncnc(NCc3ccc(N(C)C)cc3)c12 [Example 170, N-{[4-(dimethylamino)phenyl]methyl}-5-methylthieno[2,3-d]pyrimidin-4-amine]",> 10,> 10
"CCN(c1ncnc2scc(C)c12)C(Cc1ccccc1)c1ccco1 (centres unmarked) [Example 282, N-ethyl-N-[1-(furan-2-yl)-2-phenylethyl]-5-methylthieno[2,3-d]pyrimidin-4-amine]",> 10,> 10
"Cc1csc2ncnc(N3CCN(c4ccc(O)cc4)CC3)c12 [Example 243, 4-(4-{5-methylthieno[2,3-d]pyrimidin-4-yl}piperazin-1-yl)phenol]",> 10,> 10
"c1ccc(CN2CCN(c3ncnc4sc5c(c34)CCCC5)CC2)cc1 [Example 12, 4-(4-benzylpiperazin-1-yl)-5,6-tetrahydrobenzo[b]thiophenethieno[2,3-d]pyrimidine]",> 10,–
"CN1CCC(N(C)c2ncnc3scc(-c4ccc(Br)cc4)c23)CC1 [Example 13, 5-(4-bromophenyl)-N-methyl-N-(1-methylpiperidin-4-yl)thieno[2,3-d]pyrimidin-4-amine]",> 10,–
"Cc1csc2ncnc(N3CCN(CC4CCCCC4)CC3)c12 [Example 247, 1-(cyclohexylmethyl)-4-{5-methylthieno[2,3-d]pyrimidin-4-yl}piperazine]",–,> 10
"Cc1sc2ncnc(NCCc3ccc(S(N)(=O)=O)cc3)c2c1C [Example 301, 4-(2-(5,6-dimethylthieno[2,3-d]pyrimidin-4-ylamino)ethyl)benzenesulfonamide]",–,> 10
"Cc1ccc([C@H](C)Nc2ncnc3scc(C)c23)cc1 [Example 114, 5-methyl-N-[(1S)-1-(4-methylphenyl)ethyl]thieno[2,3-d]pyrimidin-4-amine]",–,> 10
"CCOC(=O)CC(C)Nc1ncnc2scc(C)c12 (centres unmarked) [Example 110, ethyl 3-({5-methylthieno[2,3-d]pyrimidin-4-yl}amino)butanoate]",–,> 10

# More lines, now with the values ahead:
EC50 (human H4) [µM],EC50 (human H1) [µM],SMILES
> 10,> 10,"Cc1csc2ncnc(N(C)Cc3cccc4ccccc34)c12 [Example 274, N,5-dimethyl-N-(naphthalen-1-ylmethyl)thieno[2,3-d]pyrimidin-4-amine]"
> 10,> 10,"Cc1csc2ncnc(CNCc3ccc(Cl)cc3)c12 [Example 35, N-(4-chlorobenzyl)-1-(5-methylthieno[2,3-d]pyrimidin-4-yl)methanamine]"
> 10,> 10,"Cc1csc2ncnc(N(C)CCC#N)c12 [Example 184, 3-[methyl({5-methylthieno[2,3-d]pyrimidin-4-yl})amino]propanenitrile]"
> 10,> 10,"C#CCN(C)c1ncnc2scc(C)c12 [Example 180, N,5-dimethyl-N-(prop-2-yn-1-yl)thieno[2,3-d]pyrimidin-4-amine]"
> 10,> 10,"Cc1csc2ncnc(NCCCO)c12 [Example 62, 3-({5-methylthieno[2,3-d]pyrimidin-4-yl}amino)propan-1-ol]"
> 10,> 10,"Cc1csc2ncnc(N(C)C)c12 [Example 178, N,N,5-trimethylthieno[2,3-d]pyrimidin-4-amine]"
> 10,> 10,CCOC(=O)N1CCN(c2ncnc3scc(C)c23)CC1 [Example 230]
> 10,–,"Cc1csc2ncnc(N3CCN(c4ccc(C#N)cn4)CC3)c12 [Example 253, 6-(4-{5-methylthieno[2,3-d]pyrimidin-4-yl}piperazin-1-yl)pyridine-3-carbonitrile]"
> 10,–,"Cc1csc2ncnc(N(C)CCc3ccccn3)c12 [Example 220, N,5-dimethyl-N-[2-(pyridin-2-yl)ethyl]thieno[2,3-d]pyrimidin-4-amine]"
> 10,–,"Cc1csc2ncnc(N3CCN(c4ccc(Cl)cc4)CC3)c12 [Example 266, 1-(4-chlorophenyl)-4-{5-methylthieno[2,3-d]pyrimidin-4-yl}piperazine]"
–,> 10,"Cc1csc2ncnc(N[C@H](C)c3ccccc3)c12 [Example 97, 5-methyl-N-[(1R)-1-phenylethyl]thieno[2,3-d]pyrimidin-4-amine]"
–,> 10,"Fc1ccccc1CCNc1ncnc2sc3c(c12)CCCC3 [Example 42, N-[2-(2-fluorophenyl)ethyl]-8-thia-4,6-diazatricyclo[7.4.0.0^{2,7}]trideca-1(9),2(7),3,5-tetraen-3-amine]"
–,> 10,"Cc1csc2ncnc(NCc3ccc(Cl)c(Cl)c3)c12 [Example 166, N-[(3,4-dichlorophenyl)methyl]-5-methylthieno[2,3-d]pyrimidin-4-amine]"
–,> 10,"Cc1csc2ncnc(NCc3ccc(F)cc3F)c12 [Example 133, N-[(2,4-difluorophenyl)methyl]-5-methylthieno[2,3-d]pyrimidin-4-amine]"
–,> 10,"Cc1csc2ncnc(N(CCO)Cc3ccccc3)c12 [Example 226, 2-[benzyl({5-methylthieno[2,3-d]pyrimidin-4-yl})amino]ethan-1-ol]"
–,> 10,"COc1cc(CNc2ncnc3scc(C)c23)cc(OC)c1 [Example 159, N-[(3,5-dimethoxyphenyl)methyl]-5-methylthieno[2,3-d]pyrimidin-4-amine]"
–,> 10,"Cc1csc2ncnc(NCC3CCCCC3)c12 [Example 89, N-(cyclohexylmethyl)-5-methylthieno[2,3-d]pyrimidin-4-amine]"
